Results as given in ChEMBL document CHEMBL1201862, “PubChem BioAssay data set” (2004).
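Cultured in 96-well plates, cells were exposed to test compound for 48 hours across five concentrations. Here, GI50 denotes the concentration required for 50% inhibition of growth.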 Active and inactive are the calls of the source. Cut-off read from the data, not from the text of the source: active = GI50 up to about 1.1 µM and inactive = higher.

Legend:
Assay in all cases: inhibition of tumour cell growth, NCI panel, 48 h
[1] = test system: K562
[2] = test system: OVCAR-4
[3] = test system: NCI-H522
[4] = test system: CAKI-1
[5] = test system: HCT-116
[6] = test system: Malme-3M
[7] = test system: A498
[8] = test system: MCF7
[9] = test system: CCRF-CEM
[10] = test system: BT-549
[11] = test system: SN12C
[12] = test system: SW-620
[13] = test system: HCC 2998
[14] = test system: SNB-75
[15] = test system: EKVX
[16] = test system: COLO 205
[17] = test system: HT-29
[18] = test system: M14
[19] = test system: SK-OV-3
[20] = test system: SK-MEL-28

SMILES | GI50 [1] | GI50 [2] | GI50 [3] | GI50 [4] | GI50 [5] | GI50 [6] | GI50 [7] | GI50 [8] | GI50 [9] | GI50 [10] | GI50 [11] | GI50 [12] | GI50 [13] | GI50 [14] | GI50 [15] | GI50 [16] | GI50 [17] | GI50 [18] | GI50 [19] | GI50 [20]
COc1ccc(-c2cc3ccccc3oc2=O)cc1OC | > 100 µM (inactive) | > 100 µM (inactive) | > 100 µM (inactive) | > 100 µM (inactive) | > 100 µM (inactive) | > 100 µM (inactive) | > 100 µM (inactive) | > 100 µM (inactive) | > 100 µM (inactive) | > 100 µM (inactive) | > 100 µM (inactive) | > 100 µM (inactive) | > 10 µM (inactive) | 60.3 µM (inactive) | > 100 µM (inactive) | > 100 µM (inactive) | > 100 µM (inactive) | > 100 µM (inactive) | 20.3 µM (inactive) | –
CC1CCN(CC(=O)N2c3ccccc3Sc3cc4ccccc4cc32)CC1 | > 100 µM (inactive) | > 100 µM (inactive) | > 100 µM (inactive) | > 100 µM (inactive) | 49.7 µM (inactive) | > 100 µM (inactive) | > 100 µM (inactive) | 47.5 µM (inactive) | 84.7 µM (inactive) | > 100 µM (inactive) | 38.7 µM (inactive) | > 100 µM (inactive) | 67.6 µM (inactive) | > 100 µM (inactive) | > 100 µM (inactive) | > 100 µM (inactive) | 48 µM (inactive) | > 100 µM (inactive) | > 100 µM (inactive) | > 100 µM (inactive)
O=C1c2ccccc2C(=O)c2c(NC(=O)C(Cl)CCl)cccc21 (configuration not stated) | 0.197 µM (active) | 10.7 µM (inactive) | 2.16 µM (inactive) | 16.3 µM (inactive) | 10.9 µM (inactive) | 18.7 µM (inactive) | 19.2 µM (inactive) | 0.785 µM (active) | 0.163 µM (active) | 17.1 µM (inactive) | 7.67 µM (inactive) | 2.86 µM (inactive) | 13.6 µM (inactive) | 10.5 µM (inactive) | 19.4 µM (inactive) | 6.47 µM (inactive) | 3.05 µM (inactive) | 6.28 µM (inactive) | 19 µM (inactive) | 17.2 µM (inactive)
COc1cc(O)c2c(=O)c3cccc(C)c3[nH]c2c1 | > 10 µM (inactive) | 6.4 µM (inactive) | > 10 µM (inactive) | > 10 µM (inactive) | > 10 µM (inactive) | > 10 µM (inactive) | 9.33 µM (inactive) | > 10 µM (inactive) | 7.6 µM (inactive) | > 10 µM (inactive) | > 10 µM (inactive) | > 10 µM (inactive) | > 10 µM (inactive) | 6.62 µM (inactive) | > 10 µM (inactive) | > 10 µM (inactive) | > 10 µM (inactive) | > 10 µM (inactive) | > 10 µM (inactive) | > 10 µM (inactive)
CC(C)(C)OC(=O)NCC(=O)NC1CC=CCC1NC(=O)CNC(=O)OC(C)(C)C (configuration not stated) | > 100 µM (inactive) | > 100 µM (inactive) | > 100 µM (inactive) | > 100 µM (inactive) | > 100 µM (inactive) | > 100 µM (inactive) | > 100 µM (inactive) | > 100 µM (inactive) | > 100 µM (inactive) | > 100 µM (inactive) | > 100 µM (inactive) | > 100 µM (inactive) | > 100 µM (inactive) | > 100 µM (inactive) | – | > 100 µM (inactive) | > 100 µM (inactive) | – | > 100 µM (inactive) | > 100 µM (inactive)
CCCCCCCCCC[C@@H](O)[C@H]1CC[C@H]([C@H]2CC[C@H]([C@H](O)CCCCCCCCCC[C@@H]3CC(CC(C)=O)C(=O)O3)O2)O1 (some centres not stated) | 0.374 µM (active) | 28.7 µM (inactive) | 7.87 µM (inactive) | > 47.1 µM (inactive) | 0.112 µM (active) | 16 µM (inactive) | > 28.5 µM (inactive) | 13.8 µM (inactive) | 9.23 µM (inactive) | 46.2 µM (inactive) | 33.4 µM (inactive) | 26.2 µM (inactive) | 41.3 µM (inactive) | > 50 µM (inactive) | 7.43 µM (inactive) | 13 µM (inactive) | 4.41 µM (inactive) | 26.3 µM (inactive) | 31.8 µM (inactive) | > 50 µM (inactive)
COc1cc2oc3cc(=O)cc4oc(-c5ccccc5)cc(c2c2c1CCC(c1ccccc1)O2)c43 (configuration not stated) | 33 µM (inactive) | > 100 µM (inactive) | 34.8 µM (inactive) | 15.7 µM (inactive) | 29.2 µM (inactive) | 67.3 µM (inactive) | 50.4 µM (inactive) | 7.66 µM (inactive) | 61 µM (inactive) | 80.5 µM (inactive) | 25.2 µM (inactive) | 67.1 µM (inactive) | 34.2 µM (inactive) | 79.1 µM (inactive) | 65.6 µM (inactive) | 18.8 µM (inactive) | 20.9 µM (inactive) | 17.4 µM (inactive) | 35 µM (inactive) | 40.7 µM (inactive)
Cc1cn([C@H]2C[C@](C)(CO)N(C)O2)c(=O)[nH]c1=O | > 100 µM (inactive) | > 100 µM (inactive) | > 100 µM (inactive) | > 100 µM (inactive) | > 100 µM (inactive) | > 100 µM (inactive) | > 100 µM (inactive) | > 100 µM (inactive) | – | > 100 µM (inactive) | > 100 µM (inactive) | > 100 µM (inactive) | > 100 µM (inactive) | > 100 µM (inactive) | > 100 µM (inactive) | > 100 µM (inactive) | > 100 µM (inactive) | > 100 µM (inactive) | > 100 µM (inactive) | > 100 µM (inactive)
COc1ccc(-c2cc(-c3ccc(Nc4ccnc5cc(Cl)ccc45)cc3)[nH]c(=O)c2C#N)cc1 | > 100 µM (inactive) | > 100 µM (inactive) | > 100 µM (inactive) | > 100 µM (inactive) | > 100 µM (inactive) | > 100 µM (inactive) | > 100 µM (inactive) | > 100 µM (inactive) | – | > 100 µM (inactive) | – | > 100 µM (inactive) | > 100 µM (inactive) | > 100 µM (inactive) | > 100 µM (inactive) | > 100 µM (inactive) | – | > 100 µM (inactive) | > 100 µM (inactive) | > 100 µM (inactive)
C=C1C(=O)O[C@@H]2CC(CO)=C([C@@H](C)CCCO)[C@@H](OC(=O)/C(C)=C\C)[C@H]12 | 5.22 µM (inactive) | 22.2 µM (inactive) | 2.62 µM (inactive) | 22.1 µM (inactive) | 8.07 µM (inactive) | 13.3 µM (inactive) | 27.8 µM (inactive) | 10.2 µM (inactive) | 2.29 µM (inactive) | 14.6 µM (inactive) | 16.2 µM (inactive) | 14.7 µM (inactive) | 15.3 µM (inactive) | 27.2 µM (inactive) | 13.7 µM (inactive) | 14.5 µM (inactive) | 12.9 µM (inactive) | 23.5 µM (inactive) | 25.9 µM (inactive) | 12 µM (inactive)
O=C(/C=C/c1cccc(Oc2ccccc2)c1)NCc1ccc(C(=O)NCCc2ccccc2)cc1 | > 100 µM (inactive) | 58.5 µM (inactive) | 75 µM (inactive) | > 100 µM (inactive) | > 100 µM (inactive) | > 100 µM (inactive) | > 100 µM (inactive) | > 100 µM (inactive) | – | > 100 µM (inactive) | > 100 µM (inactive) | > 100 µM (inactive) | > 100 µM (inactive) | 29.4 µM (inactive) | > 100 µM (inactive) | > 100 µM (inactive) | 16.9 µM (inactive) | > 100 µM (inactive) | > 100 µM (inactive) | > 100 µM (inactive)
CCN(CC)C(=S)SC(=S)N(CC)CC | 28 µM (inactive) | 19.9 µM (inactive) | 0.0951 µM (active) | 36.1 µM (inactive) | 21 µM (inactive) | 23.3 µM (inactive) | 47.3 µM (inactive) | 34.8 µM (inactive) | – | 27.3 µM (inactive) | > 54.3 µM (inactive) | 28.6 µM (inactive) | 1.93 µM (inactive) | 31.3 µM (inactive) | 42.6 µM (inactive) | 18.3 µM (inactive) | – | 44.5 µM (inactive) | > 100 µM (inactive) | 36.6 µM (inactive)
CCC(C#N)NC(=O)NC(C#N)CC (configuration not stated) | 50.9 µM (inactive) | 33.6 µM (inactive) | > 100 µM (inactive) | > 100 µM (inactive) | > 100 µM (inactive) | > 100 µM (inactive) | > 100 µM (inactive) | > 100 µM (inactive) | > 100 µM (inactive) | > 100 µM (inactive) | > 100 µM (inactive) | > 100 µM (inactive) | > 100 µM (inactive) | – | > 100 µM (inactive) | > 100 µM (inactive) | > 100 µM (inactive) | > 100 µM (inactive) | > 100 µM (inactive) | –
Nc1[nH]c(Nc2ccc(Cl)c(Cl)c2)nc2ncnc1-2 | 16.1 µM (inactive) | 20.3 µM (inactive) | 15.3 µM (inactive) | 10.8 µM (inactive) | 15.1 µM (inactive) | 18.2 µM (inactive) | 6.87 µM (inactive) | 14.6 µM (inactive) | 16.1 µM (inactive) | 12.9 µM (inactive) | 23.6 µM (inactive) | 18.1 µM (inactive) | 14.4 µM (inactive) | 8.36 µM (inactive) | 1.98 µM (inactive) | 20.7 µM (inactive) | 14.7 µM (inactive) | 16 µM (inactive) | 15.3 µM (inactive) | –
